Results on three compounds are retold here after patent US20050250715A1, “Remedy” (priority 2002, published 2005).

Series [1] relates to NGF. Put plainly: Enhancing activity for NGF production in L-M cells (NGF in culture medium by enzyme immunoassay). As to conditions: 20 hours; for Amount of NGF Production (%): control = 100%. In kind it is cell-based, murine. On the procedure: (2) The enhancing activity for NGF production of the compound a was assayed. L-M cells (ATCC CCL-1.2) from murine fibroblasts were suspended in an M199 medium (manufactured by Bio Whittaker) containing 0.5% bactopeptone (manufactured by Gibco) so as to have a concentration of 1.5×10^5 cells/mL. The suspension was put in a 96 well plate in an amount of 0.1 mL each well, and the cells were aseptically cultured. After culturing the cells for 3 days, the medium was removed therefrom, and exchanged with an M199 medium containing 0.5% bovine serum albumin (manufactured by Sigma). The compound a was added thereto, and the cells were cultured for 20 hours. After the termination of the culture, the concentration of NGF in the culture medium was assayed by an enzyme immunoassay method (NGF Emax Immuno Assay System, manufactured by Promega). The experiment was carried out twice, and an average value was taken. […] The amount of NGF production of the control was 0.739 ng/mL. As to the control, the concentration in the culture medium was determined in the same manner except that the compound a was not added. It is the same as that of the following examples.

The test system of series [2] is mouse. Put plainly: Oral toxicity in mouse. The class given is in vivo. The settings on record: mouse (male, 6-week old), orally administered at 1000 mg per kg body weight.

In the case of `CC(=O)OC1COC(OC2C(O)COC(OC3C(O)C(C)(C)CC4C5=CCC6C7(C)CCC(OC8OC(C(=O)O)C(O)C(O)C8OC8OC(CO)C(O)C(O)C8OC8OC(CO)C(O)C(O)C8O)C(C)(CO)C7CCC6(C)C5(C)CCC43C)C2O)C(OC(C)=O)C1OC(C)=O` [Compound m, 3-O-[β-D-glucopyranosyl(1→2)-β-D-galactopyranosyl-(1→2)-β-D-glucuronopyranosyl]-22-O-[2,3,4-tri-O-acetyl-β-D-xylopyranosyl(1→3)-α-L-arabinopyranosyl]soyasapogenol A], the “enhancing activity for NGF production (result in words)” value (from here on “enhancing activity for NGF production”) in series [1] is “has enhancing activity for NGF production”. In addition, the “Amount of NGF Production (%)” value came to 263.3% in series [1] (Concentration of Sample 0.5 mM), 250.9% in series [1] (Concentration of Sample 1.0 mM) and 233.4% in series [1] (Concentration of Sample 2 mM).

With `CC1(C)CC2=C3CC[C@@H]4[C@@]5(C)CCC(O)[C@](C)(CO)[C@@H]5CC[C@@]4(C)[C@]3(C)CC[C@@]2(C)C(O)C1` (stereo partly drawn) [Compound n, 13(18)-oleanene-3,22,24-triol], the “enhancing activity for NGF production” value in series [1] is on record as “has enhancing activity for NGF production”. In addition, the figures for the “Amount of NGF Production (%)” value in series [1] (Table 3: Concentration of Sample 25 mM) and in series [1] (Table 3: Concentration of Sample 50 mM) were 197.9% and 522.6%, respectively.

With `CC1(C)[C@@H](O[C@H]2O[C@H](C(=O)O)[C@@H](O)[C@H](O)[C@H]2O[C@@H]2O[C@H](C(=O)O)[C@@H](O)[C@H](O)[C@H]2O)CC[C@]2(C)[C@H]3C(=O)C=C4[C@@H]5C[C@@](C)(C(=O)O)CC[C@]5(C)CC[C@@]4(C)[C@]3(C)CC[C@@H]12` [Glycyrrhizin, glycyrrhizin, reference compound], in series [1], the “enhancing activity for NGF production” value was “has enhancing activity for NGF production”. For the same compound, the “Amount of NGF Production (%)” value in series [1] (Table 4: Concentration of Sample 0.25 mM) is reported as 113.0%; in series [1] (Table 4: Concentration of Sample 0.5 mM), 204.3%; in series [1] (Table 4: Concentration of Sample 1.0 mM), 261.0%. Further, the toxicity entry in series [2] is listed as “no toxicity is found”.
